Several values for one entry are separate records, joined by “and”; a condition that tells them apart may be missing. Equal entries are not always repeated.
Key:
TNF-α [1] = test: TNF-α expression inhibition in RAW264.7 macrophages vs PS1145 (ELISA), Experiment 1-1; assay type: cell-based; conditions: Fig. 1
[2] = test system: rheumatoid arthritis model, DBA-1J Mice [류마티스 관절염 모델]; test: Paw edema in rheumatoid arthritis animal model, dose regimen study, Experiment 6; assay type: in vivo, mouse; conditions: for Paw edema, HL, mean / Paw edema, HR, mean / Paw edema, HL, individual animal / Paw edema, HR, individual animal: Day 14; for Paw edema, HL, individual animal / Paw edema, HR, individual animal: listed as Py
TNF-α [3] = test: TNF-α expression inhibition in Raw264.7, comparison with tofacitinib, Experiment 2-2; assay type: cell-based; conditions: for TNF-α expression: 6 h pretreatment, LPS 10 ng/mL 16 h
[4] = Hematological examination, Experiment 6-4; assay type: in vivo, mouse; conditions: Day 14
[5] = G3: MTX 2 mpk qd PO, G12: Py 15 mpk qd PO

SMILES: CCc1nc(N)nc(N)c1-c1ccc(Cl)cc1 [피리메타민, Pyrimethamine]
- TNF-α expression (TNF-α [1]; pyrimethamine 2, 10, 50 ng/ml): TNF-α의 발현량이 현저하게 줄어들었으며
- TNF-α expression compared with PS1145 (TNF-α [1]; pyrimethamine 10 or 50 ng/ml vs PS1145 20 uM): 비교예(PS1145)에 비해 TNF-α의 발현이 보다 현저하게 줄어드는
- Paw edema, HL, mean ([2]; G7: Py 1 mg/kg/day QD IP): 0.17 mL
- Paw edema, HR, mean ([2]; G7: Py 1 mg/kg/day QD IP): 0.17 mL
- Paw edema, HL, individual animal ([2]; G7: Py 1 mg/kg/day QD IP): 0.18 mL and 0.19 mL and 0.17 mL and 0.12 mL and 0.14 mL
- Paw edema, HR, individual animal ([2]; G7: Py 1 mg/kg/day QD IP): 0.17 mL and 0.18 mL and 0.14 mL and 0.19 mL
- Paw edema, HL, mean ([2]; G8: Py 1 mg/kg/day BID PO): 0.16 mL
- Paw edema, HR, mean ([2]; G8: Py 1 mg/kg/day BID PO): 0.17 mL
- Paw edema, HL, individual animal ([2]; G8: Py 1 mg/kg/day BID PO): 0.14 mL and 0.13 mL and 0.17 mL and 0.19 mL and 0.20 mL
- Paw edema, HR, individual animal ([2]; G8: Py 1 mg/kg/day BID PO): 0.18 mL and 0.19 mL and 0.17 mL and 0.14 mL
- Paw edema, HL, mean ([2]; G9: Py 1 mg/kg/day QD PO): 0.17 mL
- Paw edema, HR, mean ([2]; G9: Py 1 mg/kg/day QD PO): 0.18 mL
- Paw edema, HL, individual animal ([2]; G9: Py 1 mg/kg/day QD PO): 0.13 mL and 0.20 mL and 0.17 mL and 0.19 mL
- Paw edema, HR, individual animal ([2]; G9: Py 1 mg/kg/day QD PO): 0.19 mL and 0.16 mL and 0.17 mL
- Paw edema, HL, mean ([2]; G10: Py 3 mg/kg/day BID PO): 0.15 mL
- Paw edema, HR, mean ([2]; G10: Py 3 mg/kg/day BID PO): 0.16 mL
- Paw edema, HL, individual animal ([2]; G10: Py 3 mg/kg/day BID PO): 0.16 mL and 0.20 mL and 0.13 mL and 0.15 mL
- Paw edema, HR, individual animal ([2]; G10: Py 3 mg/kg/day BID PO): 0.17 mL and 0.14 mL and 0.16 mL and 0.15 mL and 0.19 mL
- Paw edema, HL, mean ([2]; G11: Py 5 mg/kg QD PO): 0.18 mL
- Paw edema, HR, mean ([2]; G11: Py 5 mg/kg QD PO): 0.18 mL
- Paw edema, HL, individual animal ([2]; G11: Py 5 mg/kg QD PO): 0.16 mL and 0.20 mL and 0.19 mL and 0.17 mL and 0.14 mL
- Paw edema, HR, individual animal ([2]; G11: Py 5 mg/kg QD PO): 0.19 mL and 0.20 mL and 0.16 mL
- Paw edema, HL, mean ([2]; G12: Py 15 mg/kg/day QD PO): 0.14 mL
- Paw edema, HR, mean ([2]; G12: Py 15 mg/kg/day QD PO): 0.14 mL
- Paw edema, HL, individual animal ([2]; G12: Py 15 mg/kg/day QD PO): 0.19 mL and 0.13 mL and 0.11 mL and 0.14 mL
- Paw edema, HR, individual animal ([2]; G12: Py 15 mg/kg/day QD PO): 0.11 mL and 0.16 mL and 0.14 mL and 0.13 mL and 0.15 mL
- Paw edema (in words) ([2]; Py 15 mg/kg/day QD PO): 피리메타민 15 mg/kg/day QD 경구투여군에서만 개선
- TNF-α expression (TNF-α [3]; PYR 50 ng/mL): 185.3 pg/mL
- TNF-α expression (TNF-α [3]; PYR 100 ng/mL): 53.3 pg/mL
- TNF-α expression compared with tofacitinib (TNF-α [3]; Raw264.7, LPS 10 ng/ml 16 h): 토파시티닙과 달리 TNF-α의 발현량을 직접적으로 억제
- %BASO [4, 5]: 0.4±0.3%
- %EOS [4, 5]: 1.5±0.4%
- %LUC [4, 5]: 1.5±1%
- %LYM [4, 5]: 40.4±4.1%
- %MONO [4, 5]: 4.2±0.8%
- %NEUT [4, 5]: 52±5.2%
- %RETIC [4, 5]: 3.85±0.63%
- HCT [4, 5]: 46±2.5%
- HDW [4, 5]: 2.15 ± 0.13 g/dL
- HGB [4, 5]: 12.6 ± 0.7 g/dL
- MCH [4, 5]: 13.1 ± 0.4 pg
- MCV [4, 5]: 47.8 ± 1.5 fL
- MPV [4, 5]: 6.3 ± 0.1 fL
- PLT [4, 5]: 1211±176 10^3 cell/μL
- RBC [4, 5]: 9.63±0.75 10^6 cell/μL
- RDW [4, 5]: 24.2±2.2%
- WBC [4, 5]: 3.58±1.19 10^3 cell/μL
- %BASO ([4]; G7: Py 1 mpk qd IP): 0.8±0.1%
- %EOS ([4]; G7: Py 1 mpk qd IP): 1.2±0.2%
- %LUC ([4]; G7: Py 1 mpk qd IP): 2.8±1.3%
- %LYM ([4]; G7: Py 1 mpk qd IP): 49.2±3.5%
- %MONO ([4]; G7: Py 1 mpk qd IP): 6.1±2.1%
- %NEUT ([4]; G7: Py 1 mpk qd IP): 40±3.5%
- %RETIC ([4]; G7: Py 1 mpk qd IP): 5.1±0.9%
- HCT ([4]; G7: Py 1 mpk qd IP): 43.6±3.2%
- HDW ([4]; G7: Py 1 mpk qd IP): 2.33 ± 0.15 g/dL
- HGB ([4]; G7: Py 1 mpk qd IP): 11.9 ± 0.7 g/dL
- MCH ([4]; G7: Py 1 mpk qd IP): 12.3 ± 0.2 pg
- MCV ([4]; G7: Py 1 mpk qd IP): 45.1 ± 0.8 fL

Source: KR20210056931A, “피리메타민을 유효성분으로 포함하는 면역 관련 질환의 치료 또는 예방용 약학 조성물” (priority 2019, dated 2021)
